Data: patent publication US20230203058A1, “MACROCYCLIC DIAMINE DERIVATIVES AS ENT INHIBITORS FOR THE TREATMENT OF CANCERS, AND COMBINATION THEREOF WITH ADENOSINE RECEPTOR ANTAGONISTS” (ITEOS BELGIUM SA, priority 2020, published 2023)
Like-named read-outs stand apart in the source and are kept apart here.

Columns and labels:
human ENT1 = target: T1, human ENT1 (Homo sapiens, UniProt Q99808); assay: ENT1 binding assay (competition with Sahenta-DY647 on JAR cells); parameters: JAR cells expressing ENT1 were bought from ATCC® (HTB-144TM); host or cells: JAR cells (human choriocarcinoma line; whole cells); details: competition with Sahenta-DY647 100 nM, 4° C.
T1 sequence (Q99808 1-456): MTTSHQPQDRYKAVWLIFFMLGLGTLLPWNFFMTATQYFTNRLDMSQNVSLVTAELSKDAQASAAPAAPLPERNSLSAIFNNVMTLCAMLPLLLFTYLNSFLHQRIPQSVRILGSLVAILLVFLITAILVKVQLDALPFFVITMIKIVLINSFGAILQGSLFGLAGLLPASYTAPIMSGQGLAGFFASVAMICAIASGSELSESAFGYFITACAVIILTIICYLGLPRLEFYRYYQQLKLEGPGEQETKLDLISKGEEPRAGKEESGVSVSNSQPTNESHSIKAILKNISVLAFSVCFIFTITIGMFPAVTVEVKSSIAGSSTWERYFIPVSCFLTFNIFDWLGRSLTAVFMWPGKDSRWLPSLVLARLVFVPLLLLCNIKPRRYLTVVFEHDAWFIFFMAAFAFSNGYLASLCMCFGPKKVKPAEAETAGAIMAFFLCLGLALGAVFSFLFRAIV
Outline: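 Competition binding on intact JAR cells (50000 per well) in HBSS with 10 mM Hepes and 0.1% BSA. Cells pre-incubated with compound 30 min at 4 °C, then Sahenta-DY647 added at its IC90 (100 nM) for another 30 min at 4 °C; after washing, fluorescence read at Ex 630/Em 670 nm.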

[1] = tested on: stimulated primary human T cells; assay: T cell proliferation assay (rescue of proliferation in presence of ATP, CFSE dilution); assay type: cell-based; details: 100 uM ATP
Experimental: The aim of this study was to determine the potency of equilibrative nucleoside transporter 1 (ENT1) inhibitors to rescue proliferation by stimulated primary human T cells incubated in the presence of 100 uM Adenosine triphosphate (ATP), in baseline conditions (condition A) or in the presence of various proteins known to bind small molecules (condition B). Condition A: X-VIVO15 Condition B: X-VIVO15, 2% Human Serum Albumine (HSA) and 0,1% α-1-Acid Glycoprotein (AAG)
Cryopreserved purified human CD3+ T cells were thawed and washed twice with RPMI1640 medium, UltraGlutamine containing 10% hiFBS.
Cells were suspended in PBS containing 10% hiFBS. Cells were stained with CFSE by adding 2 µM solution in PBS, to get a final 1 µM CFSE solution. Cells were incubated while rotating for 5 minutes. Reaction was stopped by adding PBS with 10% FBS and cells were centrifuged for 5 minutes at 1500 rpm.
Cells were resuspended at 1.6 ×10^6 cells/mL, either in X-VIVO15 medium or in 4% Human Serum Albumin and 0,2% α-1-Acid Glycoprotein. 50 µL of cell suspension (8×10^4 T cells) was added to wells of sterile round-bottom 96-well plates. Cells were activated by adding 50 µL of anti-CD3 anti-CD28 coated microbeads, suspended either in XVIVO-15 medium or in 4% HSA and 0,2% α-1-Acid Glycoprotein, at a ratio of one microbead per two cells. Serial dilutions of the ENT1 inhibitors were prepared in X-VIVO15 from 10 mM stock solutions in DMSO, and 50 µL was added to the wells. ATP powder was diluted in X-VIVO15, and 50 µL of this compound was added to the wells to reach a final assay concentration of 100 µM. Final volume of 200 µL. The experiments were also performed in 384 well plates - all volumes reduced by a factor of 4 (12,5 µL) with a final volume of 50 µL. Experiments were performed in duplicate. The cells were placed in a 37° C. humidified tissue culture incubator with 5% CO2 for 72 hours for 96 well plates, 96 hours for 384 well plates. After 72 or 96 hours, proliferation was measured determined by CFSE dilution via flow cytometry.

[2] = Condition A: X-VIVO15, read-out: T Cell proliferation (Condition A) IC50
[3] = Condition B: X-VIVO15, 2% HSA and 0,1% AAG, read-out: (2) T Cell proliferation (Condition B) IC50

| SMILES | IC50 (human ENT1) | IC50 [1, 2] | IC50 [1, 3] |
| --- | --- | --- | --- |
| COc1cc(C(=O)O[C@@H]2CCCOc3cccc(c3)C(=O)OCCCN3CCCN(CC2)CC3)cc(OC)c1OC (stereo in doubt) [Compound 18, (12R)-6-oxo-5,8-dioxa-1(1,4)-diazepana-7(1,3)-benzenacyclotetradecaphane-12-yl 3,4,5-trimethoxybenzoate] | 1 to 20 nM | 1 to 20 nM | > 500 nM |
| COc1cc(C(=O)O[C@@H]2CCCOc3cc(cc(OC)c3OC)C(=O)OCCCN3CCCN(CC2)CC3)cc(OC)c1OC [Compound 1, (12R)-74,75-dimethoxy-6-oxo-5,8-dioxa-1(1,4)-diazepana-7(1,3)-benzenacyclotetradecaphane-12-yl 3,4,5-trimethoxybenzoate] | 1 to 20 nM | < 1 nM | < 1 nM |
| COc1cc(C(=O)O[C@@H]2CCCOc3cc(cc(OC)c3OC)C(=O)OCCCN3CCN(CC2)CC(F)(F)C3)cc(OC)c1OC [Compound 6, (12R)-16,16-difluoro-74,75-dimethoxy-6-oxo-5,8-dioxa-1(1,4)-diazepana-7(1,3)-benzenacyclotetradecaphane-12-yl 3,4,5-trimethoxybenzoate] | 1 to 20 nM | < 1 nM | 20 to 500 nM |
| COc1cc2cc(c1OC)CCC[C@@H](OC(=O)c1cc(OC)c(OC)c(OC)c1)CCN1CCCN(CCCNC2=O)CC1 [Compound 14, (11R)-74,75-dimethoxy-6-oxo-5-aza-1(1,4)-diazepana-7(1,3)-benzenacyclotridecaphane-11-yl 3,4,5-trimethoxybenzoate] | 1 to 20 nM | 1 to 20 nM | > 500 nM |
| COc1cc2cc(c1OC)OCCC[C@@H](OC(=O)c1ccccc1)CCN1CCCN(CCCOC2=O)CC1 [Compound 32, (12R)-74,75-dimethoxy-6-oxo-5,8-dioxa-1(1,4)-diazepana-7(1,3)-benzenacyclotetradecaphane-12-yl benzoate] | – | < 1 nM | 20 to 500 nM |
| COc1cc2cc(c1OC)OCCC[C@H](OC(=O)c1ccccc1)CCN1CCCN(CCCOC2=O)CC1 [Compound 33, (12S)-74,75-dimethoxy-6-oxo-5,8-dioxa-1(1,4)-diazepana-7(1,3)-benzenacyclotetradecaphane-12-yl benzoate] | > 500 nM | > 500 nM | > 500 nM |
| COc1cc2cc(c1OC)OCCCC(O/N=C\c1ccccc1)CCN1CCCN(CCCOC2=O)CC1 (centres unmarked) [Compound 37, (Z)-benzaldehyde O-(74,75-dimethoxy-6-oxo-5,8-dioxa-1(1,4)-diazepana-7(1,3)-benzenacyclotetradecaphane-12-yl) oxime] | 20 to 500 nM | 1 to 20 nM | > 500 nM |
| COc1cc2cc(c1OC)OCCC[C@@H](O)CCN1CCCN(CCCOC2=O)CC1 [Compound 39, (12R)-12-hydroxy-74,75-dimethoxy-5,8-dioxa-1(1,4)-diazepana-7(1,3)-benzenacyclotetradecaphan-6-one] | > 500 nM | 20 to 500 nM | > 500 nM |
| COc1cc2cc(c1OC)OCCCC(OC(=O)c1ccc(OC(C)C)cc1)CCN1CCCN(CCCOC2=O)CC1 (centres unmarked) [Compound 43, 74,75-dimethoxy-6-oxo-5,8-dioxa-1(1,4)-diazepana-7(1,3)-benzenacyclotetradecaphane-12-yl 4-isopropoxybenzoate] | 20 to 500 nM | < 1 nM | 1 to 20 nM |
| COc1cc2cc(c1OC)OCCCC(n1nnc(-c3ccccc3)n1)CCN1CCCN(CCCOC2=O)CC1 (centres unmarked) [Compound 107, 74,75-dimethoxy-12-(5-phenyl-2 H-tetrazol-2-yl)-5,8-dioxa-1(1,4)-diazepana-7(1,3)-benzenacyclotetradecaphan-6-one] | 1 to 20 nM | – | – |
| COc1cc2cc(c1OC)OCCCC(n1cc(-c3ccccc3)nn1)CCN1CCCN(CCCOC2=O)CC1 (centres unmarked) [Compound 108, 74,75-dimethoxy-12-(4-phenyl-1 H-1,2,3-triazol-1-yl)-5,8-dioxa-1(1,4)-diazepana-7(1,3)-benzenacyclotetradecaphan-6-one] | > 500 nM | – | – |
| COc1cc2cc(c1OC)OCCCC(OC(=O)CCN1C(=O)CCC1=O)CCN1CCCN(CCCOC2=O)CC1 (centres unmarked) [Compound 110, 74,75-dimethoxy-6-oxo-5,8-dioxa-1(1,4)-diazepana-7(1,3)-benzenacyclotetradecaphane-12-yl 3-(2,5-dioxopyrrolidin-1-yl)propanoate] | 20 to 500 nM | – | – |
| COc1cc2cc(c1OC)OCCCC(OC(=O)C1CCCC(OC)C1)CCN1CCCN(CCCOC2=O)CC1 (centres unmarked) [Compound 111, 74,75-dimethoxy-6-oxo-5,8-dioxa-1(1,4)-diazepana-7(1,3)-benzenacyclotetradecaphane-12-yl 3-methoxycyclohexane-1-carboxylate] | 1 to 20 nM | – | – |
| COc1cc2cc(c1OC)OCCCC(O/N=C/c1ccccc1)CCN1CCCN(CCCNC2=O)CC1 (centres unmarked) [Compound 114, (E)-benzaldehyde O-(74,75-dimethoxy-6-oxo-8-oxa-5-aza-1(1,4)-diazepana-7(1,3)-benzenacyclotetradecaphane-12-yl) oxime] | > 500 nM | – | – |
| COc1cc2cc(c1OC)OCCC[C@@H](O/N=C/c1ccccc1)CCN1CCCN(CCCNC2=O)CC1 [Compound 115, (E)-benzaldehyde O-((12R)-74,75-dimethoxy-6-oxo-8-oxa-5-aza-1(1,4)-diazepana-7(1,3)-benzenacyclotetradecaphane-12-yl) oxime] | > 500 nM | – | – |
| COc1cc2cc(c1OC)OCCCC(O)CCN1CCCN(CCCNC2=O)CC1 (centres unmarked) [Compound 117, 12-hydroxy-74,75-dimethoxy-8-oxa-5-aza-1(1,4) -diazepana-7(1,3)-benzenacyclotetradecaphan-6-one] | > 500 nM | – | – |
| COc1cc(C(=O)O[C@H]2CCCOc3cc(cc(OC)c3OC)C(=O)OCCCN3CCN(CC2)CC(F)(F)C3)cc(OC)c1OC [Compound 119, (12S)-16,16-difluoro-74,75-dimethoxy-6-oxo-5,8-dioxa-1(1,4)-diazepana-7(1,3)-benzenacyclotetradecaphane-12-yl 3,4,5-trimethoxybenzoate] | 1 to 20 nM | – | – |
| COc1cc(C(=O)OC2CCCOc3cc(cc(C(N)=O)c3Cl)C(=O)OCCCN3CCCN(CC2)CC3)cc(OC)c1OC (centres unmarked) [Compound 120, 75-carbamoyl-74-chloro-6-oxo-5,8-dioxa-1(1,4)-diazepana-7(1,3)-benzenacyclotetradecaphane-12-yl 3,4,5-trimethoxybenzoate] | 1 to 20 nM | – | – |
| COc1cc(C(=O)O[C@H]2CCCOc3cc(cc(Cl)c3C(N)=O)C(=O)NCCCN3CCCN(CC2)CC3)cc(OC)c1OC [Compound 121, (12S)-74-carbamoyl-75-chloro-6-oxo-8-oxa-5-aza-1(1,4)-diazepana-7(1,3)-benzenacyclotetradecaphane-12-yl 3,4,5-trimethoxybenzoate] | 20 to 500 nM | – | – |
| COc1cc(C(=O)OC2CCCOc3cc(cc(Cl)c3Br)C(=O)NCCCN3CCCN(CC2)CC3)cc(OC)c1OC (centres unmarked) [Compound 122, 74-bromo-75-chloro-6-oxo-8-oxa-5-aza-1(1,4)-diazepana-7(1,3)-benzenacyclotetradecaphane-12-yl 3,4,5-trimethoxybenzoate] | 1 to 20 nM | – | – |
| COc1cc(C(=O)OC2CCCOc3cc(cc(Cl)c3C#N)C(=O)NCCCN3CCCN(CC2)CC3)cc(OC)c1OC (centres unmarked) [Compound 123, 75-chloro-74-cyano-6-oxo-8-oxa-5-aza-1(1,4)-diazepana-7(1,3)-benzenacyclotetradecaphane-12-yl 3,4,5-trimethoxybenzoate] | 1 to 20 nM | – | – |
